This note sets out measurements from patent US11897851B2, “Heterocyclic GLP-1 agonists” (Gasherbrum Bio, Inc., priority 2021, dated 2024).

In this assay the target is T1, GLP-1 Receptor (Homo sapiens, UniProt P43220).
T1 construct: host or cells: HEK293/GLP1R/CRE-LUC (HEK293/CRE-Luc stably expressing the GLP-1 receptor)
Kind of assay: GLP-1R agonist cAMP stimulation assay (HEK293/GLP1R/CRE-LUC cells, Cisbio cAMP dynamic 2 kit).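 Note: compounds tested in half-log serial dilution, cAMP detected with cAMP-d2 and anti-cAMP cryptate antibody reagents after 1 h at room temperature.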 Conditions: HEK293/CRE-Luc cell line stably expressing the GLP-1 Receptor; 1000 cells/well; 30 min at 37° C.; 0.5 mM IBMX, 0.1% BSA; read-out: GLP1R cAMP Stimulation DR: EC50. The assay is classed as cell-based.

T1 sequence (P43220 24-463, species assumed): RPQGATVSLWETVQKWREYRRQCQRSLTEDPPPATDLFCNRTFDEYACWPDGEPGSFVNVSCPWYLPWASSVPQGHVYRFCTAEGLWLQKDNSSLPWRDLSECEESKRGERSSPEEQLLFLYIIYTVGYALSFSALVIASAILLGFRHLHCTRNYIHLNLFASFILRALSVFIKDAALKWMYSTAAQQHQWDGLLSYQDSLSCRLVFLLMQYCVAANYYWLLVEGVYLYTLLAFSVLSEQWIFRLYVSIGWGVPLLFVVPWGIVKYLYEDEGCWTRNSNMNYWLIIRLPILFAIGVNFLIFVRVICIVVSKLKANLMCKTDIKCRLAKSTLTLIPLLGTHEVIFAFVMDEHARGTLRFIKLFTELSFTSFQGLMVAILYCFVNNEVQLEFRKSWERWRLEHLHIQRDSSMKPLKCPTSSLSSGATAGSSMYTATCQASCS

For `CCn1cncc1Cn1c(CCC(=O)O)nnc1CN1CCC(c2cccc3c2OC(C)(c2ccc(Cl)cc2F)O3)CC1` (stereo not drawn) [Compound 144, 3-(5-((4-(2-(4-chloro-2-fluorophenyl)-2-methylbenzo[d][1,3]dioxol-4-yl)piperidin-1-yl)methyl)-4-((1-ethyl-1H-imidazol-5-yl)methyl)-4H-1,2,4-triazol-3-yl)propanoic acid], the concentration for a half-maximal effect (EC50) (commonly the concentration at which the effect is half-maximal) came out at 0.015 nM.

Take `C[C@]1(c2ccc(Cl)cc2F)Oc2cccc(C3CCN(Cc4ncc(/C=C/C(=O)O)n4CCOC(F)(F)F)CC3)c2O1` [Compound 145, (S,E)-3-(2-((4-(2-(4-chloro-2-fluorophenyl)-2-methylbenzo[d][1,3]dioxol-4-yl)piperidin-1-yl)methyl)-1-(2-(trifluoromethoxy)ethyl)-1H-imidazol-5-yl)acrylic acid]: the 50% effective concentration (EC50) amounted to 0.16 nM.

Regarding `CC1(c2ccc(Cl)cc2F)Oc2cccc(C3CCN(Cc4ncc(/C=C/C(=O)O)n4Cc4cccnc4C(F)(F)F)CC3)c2O1` (stereo not drawn) [Compound 146, (E)-3-(2-((4-(2-(4-chloro-2-fluorophenyl)-2-methylbenzo[d][1,3]dioxol-4-yl)piperidin-1-yl)methyl)-1-((2-(trifluoromethyl)pyridin-3-yl)methyl)-1H-imidazol-5-yl)acrylic acid], the EC50 was 1.9 nM.

As for `Cc1ncccc1Cn1c(/C=C/C(=O)O)cnc1CN1CCC(c2cccc3c2OC(C)(c2ccc(Cl)cc2F)O3)CC1` (stereo not drawn) [Compound 147, (E)-3-(2-((4-(2-(4-chloro-2-fluorophenyl)-2-methylbenzo[d][1,3]dioxol-4-yl)piperidin-1-yl)methyl)-1-((2-methylpyridin-3-yl)methyl)-1H-imidazol-5-yl)acrylic acid], the EC50 was 0.045 nM.

Consider `CCc1ncccc1Cn1c(/C=C/C(=O)O)cnc1CN1CCC(c2cccc3c2OC(C)(c2ccc(Cl)cc2F)O3)CC1` (stereo not drawn) [Compound 148, (E)-3-(2-((4-(2-(4-chloro-2-fluorophenyl)-2-methylbenzo[d][1,3]dioxol-4-yl)piperidin-1-yl)methyl)-1-((2-ethylpyridin-3-yl)methyl)-1H-imidazol-5-yl)acrylic acid], for which the concentration giving a half-maximal response (EC50) came to 0.98 nM.

As to `COc1cccc(Cn2c(/C=C/C(=O)O)cnc2CN2CCC(c3cccc4c3OC(C)(c3ccc(Cl)cc3F)O4)CC2)c1` (stereo not drawn) [Compound 149, (E)-3-(2-((4-(2-(4-chloro-2-fluorophenyl)-2-methylbenzo[d][1,3]dioxol-4-yl)piperidin-1-yl)methyl)-1-(3-methoxybenzyl)-1H-imidazol-5-yl)acrylic acid], the half-maximal effective concentration (EC50) was 0.12 nM.

In the case of `CC1(c2ccc(Cl)cc2F)Oc2cccc(C3CCN(Cc4ncc(/C=C/C(=O)O)n4Cc4cccc(Cl)c4)CC3)c2O1` (stereo not drawn) [Compound 150, (E)-3-(2-((4-(2-(4-chloro-2-fluorophenyl)-2-methylbenzo[d][1,3]dioxol-4-yl)piperidin-1-yl)methyl)-1-(3-chlorobenzyl)-1H-imidazol-5-yl)acrylic acid], the EC50 was 0.054 nM.

In the case of `CC1(c2ccc(Cl)cc2F)Oc2cccc(C3CCN(Cc4ncc(/C=C/C(=O)O)n4Cc4ccccc4)CC3)c2O1` (stereo not drawn) [Compound 151, (E)-3-(1-benzyl-2-((4-(2-(4-chloro-2-fluorophenyl)-2-methylbenzo[d][1,3]dioxol-4-yl)piperidin-1-yl)methyl)-1H-imidazol-5-yl)acrylic acid], the 50% effective concentration (EC50) was 0.043 nM.

With `C[C@@H](c1ccccc1)n1c(/C=C/C(=O)O)cnc1CN1CCC(c2cccc3c2OC(C)(c2ccc(Cl)cc2F)O3)CC1` (stereo partly drawn) [Compound 152, (E)-3-(2-((4-(2-(4-chloro-2-fluorophenyl)-2-methylbenzo[d][1,3]dioxol-4-yl)piperidin-1-yl)methyl)-1-((S)-1-phenylethyl)-1H-imidazol-5-yl)acrylic acid], the EC50 came to 0.53 nM.

On to `C[C@H](c1ccccc1)n1c(/C=C/C(=O)O)cnc1CN1CCC(c2cccc3c2OC(C)(c2ccc(Cl)cc2F)O3)CC1` (stereo partly drawn) [Compound 153, (E)-3-(2-((4-(2-(4-chloro-2-fluorophenyl)-2-methylbenzo[d][1,3]dioxol-4-yl)piperidin-1-yl)methyl)-1-((R)-1-phenylethyl)-1H-imidazol-5-yl)acrylic acid], for which the EC50 was 18 nM.

For `CC1(c2ccc(Cl)cc2F)Oc2cccc(C3CCN(Cc4ncc(/C=C/C(=O)O)n4C[C@H]4CCOC4)CC3)c2O1` (stereo partly drawn) [Compound 154, (E)-3-(2-((4-(2-(4-chloro-2-fluorophenyl)-2-methylbenzo[d][1,3]dioxol-4-yl)piperidin-1-yl)methyl)-1-(((R)-tetrahydrofuran-3-yl)methyl)-1H-imidazol-5-yl)acrylic acid], the 50% effective concentration (EC50) worked out at 0.012 nM.

Regarding `C[C@]1(c2ccc(Cl)cc2F)Oc2cccc(C3CCN(Cc4ncc(/C=C/C(=O)O)n4C[C@H]4CCOC4)CC3)c2O1` [Compound 155, (E)-3-(2-((4-((S)-2-(4-chloro-2-fluorophenyl)-2-methylbenzo[d][1,3]dioxol-4-yl)piperidin-1-yl)methyl)-1-(((R)-tetrahydrofuran-3-yl)methyl)-1H-imidazol-5-yl)acrylic acid], the EC50 is 0.0054 nM.

Regarding `CC1(c2ccc(Cl)cc2F)Oc2cccc(C3CCN(Cc4ncc(/C=C/C(=O)O)n4C[C@@H]4CCOC4)CC3)c2O1` (stereo partly drawn) [Compound 156, (E)-3-(2-((4-(2-(4-chloro-2-fluorophenyl)-2-methylbenzo[d][1,3]dioxol-4-yl)piperidin-1-yl)methyl)-1-(((S)-tetrahydrofuran-3-yl)methyl)-1H-imidazol-5-yl)acrylic acid], the concentration for a half-maximal effect (EC50) worked out at 0.086 nM.

Turning to `CC1(c2ccc(Cl)cc2F)Oc2cccc(C3CCN(Cc4ncc(/C=C/C(=O)O)n4CC4(F)COC4)CC3)c2O1` (stereo not drawn) [Compound 157, (E)-3-(2-((4-(2-(4-chloro-2-fluorophenyl)-2-methylbenzo[d][1,3]dioxol-4-yl)piperidin-1-yl)methyl)-1-((3-fluorooxetan-3-yl)methyl)-1H-imidazol-5-yl)acrylic acid], the EC50 is 0.26 nM.

On to `CC(C)OCCn1c(/C=C/C(=O)O)cnc1CN1CCC(c2cccc3c2OC(C)(c2ccc(Cl)cc2F)O3)CC1` (stereo not drawn) [Compound 158, (E)-3-(2-((4-(2-(4-chloro-2-fluorophenyl)-2-methylbenzo[d][1,3]dioxol-4-yl)piperidin-1-yl)methyl)-1-(2-isopropoxyethyl)-1H-imidazol-5-yl)acrylic acid], for which the EC50 was 0.056 nM.

As to `COC(C)Cn1c(/C=C/C(=O)O)cnc1CN1CCC(c2cccc3c2OC(C)(c2ccc(Cl)cc2F)O3)CC1` (stereo not drawn) [Compound 159, (E)-3-(2-((4-(2-(4-chloro-2-fluorophenyl)-2-methylbenzo[d][1,3]dioxol-4-yl)piperidin-1-yl)methyl)-1-(2-methoxypropyl)-1H-imidazol-5-yl)acrylic acid], the EC50 was found to be 0.051 nM.

In the case of `CC1(c2ccc(Cl)cc2F)Oc2cccc(C3CCN(Cc4ncc(/C=C/C(=O)O)n4C[C@H]4CCCO4)CC3)c2O1` (stereo partly drawn) [Compound 160, (E)-3-(2-((4-(2-(4-chloro-2-fluorophenyl)-2-methylbenzo[d][1,3]dioxol-4-yl)piperidin-1-yl)methyl)-1-(((R)-tetrahydrofuran-2-yl)methyl)-1H-imidazol-5-yl)acrylic acid], the half-maximal effective concentration (EC50) was 0.12 nM.

Take `CC1(c2ccc(Cl)cc2F)Oc2cccc(C3CCN(Cc4ncc(/C=C/C(=O)O)n4CCS(C)(=O)=O)CC3)c2O1` (stereo not drawn) [Compound 161, (E)-3-(2-((4-(2-(4-chloro-2-fluorophenyl)-2-methylbenzo[d][1,3]dioxol-4-yl)piperidin-1-yl)methyl)-1-(2-(methylsulfonyl)ethyl)-1H-imidazol-5-yl)acrylic acid]: the 50% effective concentration (EC50) came to 0.18 nM.

For the compound `CC1(c2ccc(Cl)cc2F)Oc2cccc(C3CCN(Cc4ncc(/C=C/C(=O)O)n4CC4CC4)CC3)c2O1` (stereo not drawn) [Compound 162, (E)-3-(2-((4-(2-(4-chloro-2-fluorophenyl)-2-methylbenzo[d][1,3]dioxol-4-yl)piperidin-1-yl)methyl)-1-(cyclopropylmethyl)-1H-imidazol-5-yl)acrylic acid], the half-maximal effective concentration (EC50) was 0.14 nM.

With `CC1(c2ccc(Cl)cc2F)Oc2cccc(C3CCN(Cc4ncc(/C=C/C(=O)O)n4[C@@H]4CCOC4)CC3)c2O1` (stereo partly drawn) [Compound 163, (E)-3-(2-((4-(2-(4-chloro-2-fluorophenyl)-2-methylbenzo[d][1,3]dioxol-4-yl)piperidin-1-yl)methyl)-1-((R)-tetrahydrofuran-3-yl)-1H-imidazol-5-yl)acrylic acid], the EC50 was determined as 0.13 nM.

On to `Cn1c(/C=C/C(=O)O)cnc1CN1CCC(c2cccc3c2OC(C)(c2ccc(Cl)cc2F)O3)CC1` (stereo not drawn) [Compound 164, (E)-3-(2-((4-(2-(4-chloro-2-fluorophenyl)-2-methylbenzo[d][1,3]dioxol-4-yl)piperidin-1-yl)methyl)-1-methyl-1H-imidazol-5-yl)acrylic acid], for which the EC50 is 0.33 nM.

Consider `CC1(c2ccc(Cl)cc2F)Oc2cccc(C3CCN(Cc4ncc(/C=C/C(=O)O)n4CC4CCS4(=O)=O)CC3)c2O1` (stereo not drawn) [Compound 165, (E)-3-(2-((4-(2-(4-chloro-2-fluorophenyl)-2-methylbenzo[d][1,3]dioxol-4-yl)piperidin-1-yl)methyl)-1-((1,1-dioxidothietan-2-yl)methyl)-1H-imidazol-5-yl)acrylic acid], for which the EC50 turned out to be 0.014 nM.

As to `COC1(Cn2c(/C=C/C(=O)O)cnc2CN2CCC(c3cccc4c3OC(C)(c3ccc(Cl)cc3F)O4)CC2)CCC1` (stereo not drawn) [Compound 166, (E)-3-(2-((4-(2-(4-chloro-2-fluorophenyl)-2-methylbenzo[d][1,3]dioxol-4-yl)piperidin-1-yl)methyl)-1-((1-methoxycyclobutyl)methyl)-1H-imidazol-5-yl)acrylic acid], the EC50 was found to be 0.069 nM.

`CC1(c2ccc(Cl)cc2F)Oc2cccc(C3CCN(Cc4ncc(/C=C/C(=O)O)n4CC4CCC4(F)F)CC3)c2O1` (stereo not drawn) [Compound 167, (E)-3-(2-((4-(2-(4-chloro-2-fluorophenyl)-2-methylbenzo[d][1,3]dioxol-4-yl)piperidin-1-yl)methyl)-1-((2,2-difluorocyclobutyl)methyl)-1H-imidazol-5-yl)acrylic acid]: the EC50 was found to be 0.065 nM.
